Earlier results, collected in patent US8389574B2, “Method useful for the prevention of type 2 diabetes and its complications in pre-diabetic patients with insulin resistance” (Sigma-Tau Industrie Farmaceutiche Riunite S.p.A., priority 2007, dated 2013).

Settings: DPP participants at high risk for IGT and type 2 diabetes; over 3 years

Compound: CN(C)C(=N)N=C(N)N [metformin]
- Reduction of risk of getting type 2 diabetes: 31%
